The values that follow come from ChEMBL document CHEMBL5241116, “Isolation of Fluorescent Benzoxazines with Neuroprotective Activity from the Olive Weevil Pimelocerus perforatus” (J Nat Prod, 2022).

Molecules are shown by their SMILES. The source made the active and inactive calls. The calls are words filed in the database; no cut-off is given here.

A short description of data set [1]: Neurotoxicity in human SH-SY5Y cells assessed as reduction in cell viability at 50 uM by WST-8 assay. It counts as toxicity, cell-based. (Formazan colour is commonly taken as a measure of viable cells.)
In data set [2] the test system is SH-SY5Y. The data set is described as follows: Neuroprotective activity against H2O2-induced cell death in human SH-SY5Y cells pretreated with compound followed by H2O2 stimulation and measured after 24 hrs by WST-8 assay. It counts as functional, cell-based.

Take `OCCc1ccc(O)c(O)c1` [HYDROXYTYROSOL]: the Activity result in data set [1] is “Non-Toxic”. Moreover, in data set [2], the result was Active.

In the case of `Cc1c(C)c2c(c(C)c1O)CCC(C)(C(=O)O)O2` (configuration not stated), in data set [2], the outcome was Active.

On to `O=C1C=C2Nc3ccc(CCO)cc3O[C@]23CCO[C@@]1(O)C3` (racemic), for which the Activity result in data set [1] is given as “Non-Toxic”. The result in data set [2] was Active.

In the case of `O=C1C=C2Nc3cc(CCO)ccc3O[C@]23CCO[C@@]1(O)C3` (racemic), the Activity entry in data set [1] is “Non-Toxic”. For the same compound, the result in data set [2] was Active.
